{"source": "patent US20160243080A1", "about": "“FORMULATIONS OF ANGIOTENSIN RECEPTOR BLOCKERS” (priority 2015, published 2016)", "key": {"[1]": {"test": "in vivo", "details": "Yucatan miniature swine, pig", "method": "Plasma standards and samples (50 μL) were extracted in 500 μL methanol containing 100 nM losartan (internal standard). Extracts were centrifuged at 16000×g for 5 minutes at 4° C. to precipitate proteins. Extracts (500 μL) were transferred to a new tube and dried in vacuum at 45° C. for 90 minutes. Samples were reconstituted in 30% acetonitrile in water (50 μL) and centrifuged as above. Supernatants (45 μL) were transferred to a 96 well plate. Analytes (10 μL) were separated on an Agilent 1290 UPLC system with a c18 column using a gradient run of 50-95% acetonitrile over 2 minutes at 0.4 mL/minute and detected on an Agilent 6520 QTOF mass spectrometer. Standards within the quantifiable range were used to generate a standard curve.\nPrior to surgery (Day 0), Day 10 (pre-dose), Day 18 (pre-dose), and Day 57 (prior to termination); blood samples (3 mL/animal) were collected, processed to plasma by centrifuging for approximately 15 minutes at 3000 rpm at 4° C., transferred into labeled cryovials, immediately frozen on dry ice, and shipped to the sponsor for future analysis."}, "[2]": {"system": "5 cm full-thickness circular excisional wounds", "test": "Wound healing in aged diabetic Yucatan miniature swine: digital photography, planimetry, image analysis", "assay_type": "in vivo, Sus scrofa", "method": "Both gels are applied daily. • Wound measurements: On a daily basis, planimetry and digital photography are conducted to assess changes in wound size. • Upon complete closure: Healed wound tissue is collected and analyzed. The study had two treatment groups, which consisted of a test article treatment or a vehicle control treatment on three diabetic (alloxan-induced) Yucatan miniature swine. The acclimation period was 7 days. On Day 0, each study animal underwent surgery to create 8 (4 per side) 5 cm full-thickness circular excisional wounds on their dorsal surface. All wounds were initially topically treated with the same (Treatment A) compound once daily for the first 7 days (Day 0 through Day 6). Thereafter, 4 wounds per animal received daily topical administration of Treatment B, and the other 4 wounds received Treatment C for the duration of the study. All wound sites (8 per animal) were covered with one dressing type. All wounds were observed/evaluated up through final sample collection (Day 57). The experimental study design, including treatment groups and wound sites/time points, and variables to be evaluated and intervals are presented in Tables 1 through 3. On Day 0, the dorso-lateral back area of each animal was closely clipped with electric clippers. Each animal was prepared for surgery using alternating disinfecting scrubs and isopropyl alcohol rinses. The surgical area was draped and a sufficiently large hole(s) was created within the drape(s). The proposed wound sites were outlined using a sterile template and sterile marker. […] Refer to FIG. 3. • a. Using a surgical blade, eight 5 cm full-thickness circular excisional wounds were created (down to the fat layer). All excised tissue from each wound site was discarded. • b. Direct pressure was utilized to obtain hemostasis. • c. […] Each animal was monitored until it had completely recovered from the anesthesia. […] Each animal was monitored until it had completely recovered from anesthesia (if employed). […]"}, "[3]": {"assay_type": "in vivo", "details": "body weight, blood pressure, blood glucose, serum chemistry and hematology", "description": "Prior to this study, selected male animals had been castrated and fitted with vascular access ports (VAP) for diabetic induction. After these animals had fully recovered from VAP procedures, diabetes was chemically-induced using alloxan. Following induction, the glucose levels of the animals was monitored and regulated with Vetsulin (or equivalent). A glucometer and/or other appropriate device was used to determine glucose levels of the animals. VAP procedures, diabetic induction, and recovery periods were conducted under a separate SRC standard protocol prior to the initiation of this study. Glucose levels of all study animals were monitored and regulated at least once daily during the study to keep within targeted glucose range (target 200 to 600 mg/dL). Blood pressure was determined for each animal on Days 7, 8, 18, and 57 (prior to termination).\nGeneral in-cage/pen observations for mortality/moribundity were made at least daily.\nAnimals were weighed once during acclimation (Day −1) and again prior to termination (Day 57).\nDay −5 (acclimation), Day 10 (pre-dose), Day 18 (pre-dose) and Day 57 (prior to termination); blood samples for CBC and serum chemistries were collected for clinical pathology analysis from each animal and analyzed by SRC. • Hematology: Blood samples (3 mL/animal) were collected from all animals. K3EDTA was used as anticoagulant. […]"}, "[4]": {"system": "wounds of diabetic (Leprdb) mice", "test": "Mouse model wound healing experiments, planimetric wound closure", "assay_type": "in vivo", "details": "topical, applied from 7 days after wounding (proliferation/remodeling phase)", "description": "In FIG. 11, the “ratio” (y-axis) reflects the percentage of wound closure as compared to the wound size on day 7 in the same animal."}, "[5]": {"system": "AT2R mRNA", "test": "mRNA expression in treated mouse wounds", "assay_type": "in vivo"}, "[6]": {"system": "TGFβ3 mRNA", "test": "mRNA expression in treated mouse wounds", "assay_type": "in vivo", "details": "P<0.05"}, "[7]": {"system": "wounds of AT2R^−/− mice", "test": "Wound healing in AT2R^−/− mice", "assay_type": "in vivo, mouse", "description": "Pharmacologically, ARBs and ACE inhibitors differ on their mechanism of action and the level at which they block RAS. While ARBs block RAS distally at the AT1R level, ACEi block the conversion of Angiotensin I to Angiotensin II and thereby diminishing available Angiotensin II to bind to either AT1R or AT2Rs. […] Collagen is a marker for assessing skin strength."}, "[8]": {"system": "Smad1", "test": "Immunohistochemistry of Smads in wounds of aged diabetic pigs", "assay_type": "in vivo", "details": "pig wounds, vs placebo", "description": "(§1) Although not completely characterized, wound healing is greatly influenced by subtle changes of transforming growth factor-beta (TGF-β) superfamily, which is strongly influenced by RAS. TGF-β signaling mediate the phosphorylation of Smad family proteins. Phosphorylated Smads then translocate to the nucleus with the common-mediator (co-Smad) Smad4. Additionally, Smad activity is also regulated by phosphorylation through non-receptor kinases such as p42/44 mitogen activating protein kinase (MAPK) and p38 MAPK. In chronic wounds, failure of TGF-β Smad 2 and 3 phosphorylation and reduction in p42/44 MAPK activity was associated with a slower proliferative rate and impaired healing. RAS has been tightly linked to TGFβ activity but the specific effects of AT1R on the different Smads during wound healing are not known."}, "[9]": {"system": "Smad2", "test": "Immunohistochemistry of Smads in wounds of aged diabetic pigs", "assay_type": "in vivo", "details": "pig wounds, vs placebo", "description": "as §1"}, "[10]": {"system": "Smad3", "test": "Immunohistochemistry of Smads in wounds of aged diabetic pigs", "assay_type": "in vivo", "details": "pig wounds, vs placebo", "description": "as §1"}, "[11]": {"system": "phosphorylated Smad1, 5 and 9", "test": "Immunohistochemistry of Smads in wounds of aged diabetic pigs", "assay_type": "in vivo", "details": "pig wounds, vs placebo", "description": "as §1"}, "[12]": {"system": "VEGF Receptor 2", "test": "Proliferation and angiogenesis markers in aged diabetic pig wounds", "assay_type": "in vivo", "description": "(§2) An increase in a-SMA and phosphorylated VEGF Receptor 2 was also observed. Finally, the inventors have previously reported the presence of a functional mitochondrial angiotensin system within the mitochondria that played a role in mitochondrial bioenergetics regulation."}, "[13]": {"system": "alpha-smooth muscle actin (α-SMA)", "test": "Proliferation and angiogenesis markers in aged diabetic pig wounds", "assay_type": "in vivo", "description": "as §2"}, "[14]": {"system": "p42/44 MAPK", "test": "Proliferation and angiogenesis markers in aged diabetic pig wounds", "assay_type": "in vivo", "description": "as §2"}, "[15]": {"system": "mitochondrial Cox IV", "test": "Mitochondrial content in aged diabetic pig wounds", "assay_type": "in vivo", "description": "as §2"}, "[16]": {"system": "healing skin of aged diabetic pigs", "test": "Masson's trichrome and H&E staining of skin sections from aged diabetic pigs", "assay_type": "in vivo, pig", "description": "Using Mason Trichrome (FIG. 22, panels A-H) and H&E stains (FIG. 22, panel I). Collagen content and other histological changes in healing skin were examined. Tensiometry was employed to quantify differences in tensile strength between placebo and valsartan treated wounds."}, "[17]": {"system": "healing skin of aged diabetic pigs", "test": "Tensiometry of healed pig skin", "assay_type": "in vivo", "details": "vs placebo", "method": "At termination, an approximately 8 mm×16 mm tensiometry sample was collected from the dorsal side of each wound site that spanned the cranial to caudal aspect of the wound for analysis. This procedure was performed and data maintained by sponsor personnel. No details of analysis or results were included in this in-life report. […] Using Mason Trichrome (FIG. 22, panels A-H) and H&E stains (FIG. 22, panel I). Collagen content and other histological changes in healing skin were examined. Tensiometry was employed to quantify differences in tensile strength between placebo and valsartan treated wounds."}, "[18]": {"system": "wound", "test": "Diabetic mouse and pig wound models, timing of topical application (summary statements)", "assay_type": "in vivo", "details": "first 1-7 days after wounding"}, "[19]": {"details": "cited from earlier work"}}, "note": "“Also recorded” adds a separate entry of the source. Like-named read-outs stand apart in the source and are kept apart here."}
{"smiles": "CCCCC(=O)N(Cc1ccc(-c2ccccc2-c2nnn[nH]2)cc1)[C@H](C(=O)O)C(C)C", "note": "[valsartan]", "values": [{"measurement": "concentration at 57 day", "setting": "[1]", "result": "< 1", "unit": "nM"}, {"measurement": "epithelization (automated digital analysis of wound images)", "setting": "[2]; aged diabetic pigs, vs placebo", "result": "higher rates of epithelization"}, {"measurement": "slough at the wound base (automated digital analysis of wound images)", "setting": "[2]; aged diabetic pigs, vs placebo", "result": "lower accumulation of slough at the wound base; also recorded: clearance of slough"}, {"measurement": "healing rate / wound closure rate (planimetry) as compared to placebo", "setting": "[2]; diabetic pigs, daily topical from Day 7, 57 days", "result": "faster wound closure rates"}, {"measurement": "tolerability / adverse animal health effects", "setting": "[3]", "result": "no observed adverse animal health effects"}, {"measurement": "wound healing / wound closure", "setting": "[4]", "result": "more efficacious in accelerating wound healing compared to losartan"}, {"measurement": "AT2R mRNA", "setting": "[5]", "result": "statistically non-significant increase"}, {"measurement": "decrease in TGFβ3 mRNA", "setting": "[6]", "result": 0.6, "unit": "fold"}, {"measurement": "wound healing / wound closure in AT2R^−/− mice", "setting": "[7]", "result": "delayed healing"}, {"measurement": "Smad1 expression", "setting": "[8]", "result": "decrease in the expression"}, {"measurement": "Smad1 expression", "setting": "[8]; listed as topical Valsartan", "result": "inhibited"}, {"measurement": "Smad2 expression", "setting": "[9]", "result": "decrease in the expression"}, {"measurement": "Smad2 expression", "setting": "[9]; listed as topical Valsartan", "result": "inhibited"}, {"measurement": "Smad3 expression", "setting": "[10]", "result": "higher expression"}, {"measurement": "phosphorylated Smad3", "setting": "[10]", "result": "higher expression"}, {"measurement": "Smad3 expression", "setting": "[10]; listed as topical Valsartan", "result": "activated"}, {"measurement": "phosphorylated Smad3", "setting": "[10]; listed as topical Valsartan", "result": "increase in phosphorylated Smad3"}, {"measurement": "Smad1, 5, 9 phosphorylation", "setting": "[11]", "result": "decreased; also recorded: decrease in the expression"}, {"measurement": "phosphorylated VEGF Receptor 2", "setting": "[12]", "result": "increase"}, {"measurement": "α-SMA", "setting": "[13]", "result": "increase"}, {"measurement": "phosphorylation of p42/44 MAPK", "setting": "[14]", "result": "enhanced phosphorylation of p42/44 MAPK"}, {"measurement": "mitochondrial Cox IV / mitochondrial numbers", "setting": "[15]", "result": "significant increase in the mitochondrial numbers"}, {"measurement": "mitochondrial Cox IV / mitochondrial numbers", "setting": "[15]; listed as topical Valsartan", "result": "increase in mitochondrial COX IV"}, {"measurement": "zone of dermal collagen", "setting": "[16]", "result": "expanded zone of dermal collagen"}, {"measurement": "dermal collagen layer thickness", "setting": "[16]; P<0.001 vs placebo", "result": "6±0.2", "unit": "mm"}, {"measurement": "epidermal layer thickness", "setting": "[16]; P<0.001 vs placebo", "result": "192±11", "unit": "μm"}, {"measurement": "collagen fiber arrangement (ultrastructural analysis)", "setting": "[16]; vs placebo", "result": "more organized collagen fiber arrangement"}, {"measurement": "tensile strength of healing skin", "setting": "[17]", "result": "higher tensile strength"}, {"measurement": "wound healing when applied during the inflammatory phase", "setting": "[18]", "result": "made the wounds bigger"}, {"measurement": "wound healing when applied during the inflammatory phase", "setting": "[18]; listed as topical valsartan", "result": "significantly impaired wound healing"}, {"measurement": "expected blood level of Valsartan in a human on oral Valsartan", "setting": "[19]", "result": "4 to 5", "unit": "µM"}]}
